Data on 24 molecules can be found in ChEMBL document CHEMBL5244255, “An insight on medicinal attributes of 1,2,4-triazoles” (Eur J Med Chem, 2020).

Values after ≈ are worked out from the molar mass of the structure shown.

Test [1] concerns Trypanosoma cruzi. As to the kind of experiment: Trypanocidal activity against amastigote stage of Trypanosoma cruzi. The format is functional, organism-based.
Test [2] has as its system Trypanosoma cruzi. Description: Trypanocidal activity against epimastigote stage of Trypanosoma cruzi. The format is functional, organism-based.
The test system of test [3] is Mycobacterium tuberculosis. Description: Antimycobacterial activity against Mycobacterium tuberculosis H37Rv measured after 7 days. The conditions noted are these: 168 h, time 7 day. The format is functional.
The nature of test [4]: Inhibition of BRAF V600E mutant (unknown origin) incubated for 25 mins in presence of ATP by ELISA assay. More on the design: species or system Homo sapiens.
Test [5] deals with Tubulin. As to the kind of experiment: Inhibition of tubulin (unknown origin). The format is protein-complex assay, Homo sapiens.
Test [6] addresses Epidermal growth factor receptor (Homo sapiens, UniProt P00533). As to the kind of experiment: Inhibition of EGFR (unknown origin) […] insect sf9 cells incubated for 1 hrs in presence of ATP.
Test [7] concerns Plasmodium falciparum. Description: Antimalarial activity against Chloroquine resistant Plasmodium falciparum W2. The format is functional, organism-based.
In test [8] the test system is Rattus norvegicus. Description: Antiinflammatory activity in rat assessed as reduction in carrageenan induced edema at 10 mg/kg, po measured after 4 to 5 hrs relative to control. Set-up: scale not given: the % may be the effect or the level left. The format is functional. The note with it: time 4-5 hrs.
For test [9], the system named is Plasmodium falciparum. Description: Antimalarial activity against Plasmodium falciparum. The conditions noted are these: Plasmodium falciparum; read-out: IC50. The format is functional, organism-based.
Test [10] concerns Plasmodium falciparum. As to the kind of experiment: microbe, parasite or virus in culture.
Another test deals with DNA gyrase (Escherichia coli, UniProt P0AES4+P0AES6). As to the kind of experiment: Inhibition of Escherichia coli DNA gyrase supercoiling activity by Microplate Assay kit method. The format is protein-complex assay.
Test [11] deals with Staphylococcus aureus. As to the kind of experiment: Antibacterial activity against Staphylococcus aureus assessed as bacterial growth inhibition incubated for 16 hrs. The format is functional.
The subject of the next test is Candida albicans. Description: Antifungal activity against Candida albicans assessed as fungal growth inhibition incubated for 16 hrs. The format is functional.
A further test concerns MCF7. As to the kind of experiment: Antiproliferative activity against human MCF7 cells assessed as cell growth inhibition incubated for 48 hrs by MTT assay. The format is functional, cell-based. The conditions noted are these: MCF7, 48 h.
The next test concerns HT-29. As to the kind of experiment: Antiproliferative activity against human HT-29 cells assessed as cell growth inhibition incubated for 48 hrs by MTT assay. The format is functional, cell-based. The conditions noted are these: HT-29, 48 h. For orientation: Formazan colour is commonly taken as a measure of viable cells.
For another test, the system named is HeLa. Description: Antiproliferative activity against human HeLa cells assessed as cell growth inhibition incubated for 48 hrs by MTT assay. The format is functional, cell-based.
For another test, the system named is RS4-11. Description: Antiproliferative activity against human RS4-11 cells assessed as cell growth inhibition incubated for 48 hrs by MTT assay. The format is functional, cell-based. The note with it: RS4-11, 48 h.
A further test deals with Jurkat. Description: Antiproliferative activity against human jurkat cells assessed as cell growth inhibition incubated for 48 hrs by MTT assay. The format is functional, cell-based.
The target in test [12] is Tubulin (Bos taurus, UniProt Q6B856+Q862L2+Q862F3). As to the kind of experiment: Inhibition of bovine brain tubulin polymerization incubated for 20 mins in presence of GTP.
The target in another test is DNA topoisomerase II (Homo sapiens, UniProt P11388+Q02880). Description: Inhibition of human Topoisomerase 2 incubated for 30 mins by ELISA assay. The format is protein assay. (ELISA stands for enzyme-linked immunosorbent assay.)
The species named for test [13] is Rattus norvegicus. As to the kind of experiment: Bronchodilator activity in Sprague-Dawley rat. The format is functional, organism-based.
Test [14] can be described thus: Inhibition of 5 alpha reductase (unknown origin).
Test [15] relates to Leishmania major. Description: Potency index, ratio of test compound IC50 to amphotericin B IC50 for antileishmanial activity against promastigotes stage of leishmania major. The format is functional.
Test [16] relates to Leishmania major. Description: Antileishmanial activity against promastigotes stage of Leishmania major. The format is functional, organism-based.
For test [17], the system named is Leishmania major. As to the kind of experiment: Potency index, ratio of test compound IC50 to miltefosine IC50 for antileishmanial activity against promastigotes stage of leishmania major. The format is functional.
In test [18] the test system is Xanthomonas oryzae pv. oryzae. As to the kind of experiment: Antibacterial activity against Xanthomonas oryzae pv. oryzae assessed as bacterial growth inhibition by turbidimetric method. The format is functional, organism-based.
Test [19] concerns Xanthomonas oryzae pv. oryzae. As to the kind of experiment: Antibacterial activity against Xanthomonas oryzae pv. oryzae assessed as bacterial growth inhibition. The format is functional, organism-based.
Test [20] has as its system Acinetobacter haemolyticus. Description: Antibacterial activity against Acinetobacter haemolyticus ATCC 19002 assessed as bacterial growth inhibition by double micro dilution method. The format is functional.
The next test concerns Escherichia coli. As to the kind of experiment: Antibacterial activity against Escherichia coli ATCC 25922 assessed as bacterial growth inhibition by double micro dilution method. The format is functional.
The subject of a further test is Enterococcus faecalis. Description: Antibacterial activity against Enterococcus faecalis ATCC 29212 assessed as bacterial growth inhibition by double micro dilution method. The format is functional.
The subject of test [21] is Staphylococcus aureus. Description: Antibacterial activity against Staphylococcus aureus ATCC 25923 assessed as bacterial growth inhibition by double micro dilution method. The format is functional.
Another test deals with Klebsiella pneumoniae. As to the kind of experiment: Antibacterial activity against Klebsiella pneumoniae ATCC 13883 assessed as bacterial growth inhibition by double micro dilution method. The format is functional.
Another test deals with Pseudomonas aeruginosa. As to the kind of experiment: Antibacterial activity against Pseudomonas aeruginosa ATCC 27853 assessed as bacterial growth inhibition by double micro dilution method. The format is functional.

Epidermal growth factor receptor, sequence (P00533 whole entry): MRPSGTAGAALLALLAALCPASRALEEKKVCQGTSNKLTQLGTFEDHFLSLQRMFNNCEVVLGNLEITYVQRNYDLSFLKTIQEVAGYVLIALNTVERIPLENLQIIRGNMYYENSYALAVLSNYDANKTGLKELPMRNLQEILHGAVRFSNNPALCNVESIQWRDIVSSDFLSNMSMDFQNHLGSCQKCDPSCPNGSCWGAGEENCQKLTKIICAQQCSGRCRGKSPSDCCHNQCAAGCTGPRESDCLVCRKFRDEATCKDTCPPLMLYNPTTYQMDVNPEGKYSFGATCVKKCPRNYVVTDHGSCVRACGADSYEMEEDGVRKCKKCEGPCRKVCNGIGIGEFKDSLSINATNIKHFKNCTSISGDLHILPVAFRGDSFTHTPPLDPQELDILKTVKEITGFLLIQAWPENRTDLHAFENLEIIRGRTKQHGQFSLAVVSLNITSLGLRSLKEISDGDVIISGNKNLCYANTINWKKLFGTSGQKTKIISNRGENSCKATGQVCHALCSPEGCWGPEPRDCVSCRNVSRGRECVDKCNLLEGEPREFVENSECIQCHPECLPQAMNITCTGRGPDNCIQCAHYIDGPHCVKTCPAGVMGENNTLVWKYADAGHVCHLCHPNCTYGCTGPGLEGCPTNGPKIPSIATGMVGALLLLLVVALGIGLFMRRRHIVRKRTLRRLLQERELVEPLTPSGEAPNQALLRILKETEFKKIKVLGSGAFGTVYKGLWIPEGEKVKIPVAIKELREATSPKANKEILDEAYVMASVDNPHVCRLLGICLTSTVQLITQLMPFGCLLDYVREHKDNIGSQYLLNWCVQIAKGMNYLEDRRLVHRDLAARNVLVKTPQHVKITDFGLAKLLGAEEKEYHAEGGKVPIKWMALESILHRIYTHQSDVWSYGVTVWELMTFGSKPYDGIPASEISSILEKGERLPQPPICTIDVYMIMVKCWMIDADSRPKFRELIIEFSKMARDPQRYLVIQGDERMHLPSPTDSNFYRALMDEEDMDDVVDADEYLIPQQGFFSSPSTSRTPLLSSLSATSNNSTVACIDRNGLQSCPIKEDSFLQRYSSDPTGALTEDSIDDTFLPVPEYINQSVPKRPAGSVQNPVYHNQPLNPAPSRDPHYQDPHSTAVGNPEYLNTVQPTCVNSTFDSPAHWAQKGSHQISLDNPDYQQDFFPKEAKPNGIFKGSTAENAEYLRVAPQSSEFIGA

What is called IC50 is the concentration that gives 50% inhibition. As to `CCCCSC1NN=C(/C=C/C=C/c2ccc3c(c2)OCO3)N1C1CCCCC1` (stereo not given), the IC50 with Trypanosoma cruzi [1] is 3.61 µM; with Trypanosoma cruzi [2] it was 3.18 µM.
The MIC is the least concentration at which growth counts as inhibited. `O=[N+]([O-])c1ncn(CCCCNS(=O)(=O)c2scc(Cl)c2Cl)n1` returned an MIC in test [3] of 1.56 µg/mL (≈ 3.9 µM).
For the molecule `COc1ccc(C(=O)n2nc(-c3cccnc3)nc2N)cc1`, the results for the IC50 (in test [4]; against Tubulin [5]; in test [6]) were 1.9 µM, 0.957 µM and 3.6 µM, respectively.
`Cc1cc(Nc2ccc(Cl)c(Cl)c2)n2nc(C(F)(F)F)nc2n1` had an IC50 with Plasmodium falciparum [7] of 0.023 µM.
For the molecule `O=C(CSc1nnc(COc2ccccc2)n1-c1ccc(Cl)cc1)Nc1nc2ccccc2s1`, the Activity in the test with Rattus norvegicus [8] is listed as 84.43%.
Take `C=C[C@H]1CN2CC[C@H]1C[C@H]2[C@H](O)c1ccnc2ccc(OC)cc12` [QUININE]: the IC50 came out at 0.286 µM in the test with Plasmodium falciparum [9] and 0.268 µg/mL (≈ 0.826 µM) with Plasmodium falciparum [10].
At DNA gyrase, `CCn1cc(-c2nc(/N=C/c3ccc(F)cc3)n[nH]2)c(=O)c2ccc(C)nc21` gave an IC50 of 9.75 µM.
On to `O=C(NCc1nnc(S)n1/N=C/c1ccc([N+](=O)[O-])cc1)c1ccccc1`, for which the MIC with Staphylococcus aureus [11] and with Candida albicans was 3.12 µg/mL (≈ 8.17 µM) throughout.
`COc1ccc(C(=O)n2nc(-c3ccncc3)nc2N)cc1`: the IC50 in [4] came out at 1.8 µM; against Tubulin [5], 0.872 µM; in test [6], 4.6 µM.
For `COc1ccc(-c2nc(N)n(C(=O)c3cc(OC)c(OC)c(OC)c3)n2)cc1`, the half-inhibitory concentration (IC50) with MCF7 was below 1 µM; in the test with HT-29, below 1 µM; in the test on HeLa it was below 1 µM; in the test on RS4-11 it was below 1 µM; with Jurkat, below 1 µM; on Tubulin [12], 0.97 µM.
Take `COc1ccccc1-n1c(S)nnc1-c1cc(S(N)(=O)=O)c(Cl)cc1N`: in the test with Plasmodium falciparum [10], the IC50 amounted to 0.025 µg/mL (≈ 0.0607 µM).
With `COc1cc(C(=O)n2nc(-c3ccc(C)cc3)nc2N)cc(OC)c1OC`, the IC50 with MCF7 was below 1 µM; in the test on HT-29, below 1 µM; in the test on HeLa, below 1 µM; in the test with RS4-11, below 1 µM; in the test with Jurkat, below 1 µM; at Tubulin [12], 0.66 µM.
Molecule `CC[C@@H](CO)NCCN[C@@H](CC)CO` [ETHAMBUTOL] gave an MIC in test [3] of 6.25 µg/mL (≈ 30.6 µM).
As to `O=C(CSc1nc2ccccc2n2cnnc12)Nc1ccc(S(=O)(=O)Nc2ccccn2)cc1`, on DNA topoisomerase II, the IC50 was found to be 0.97 µM.
The EC50 is the midpoint of the concentration-response curve. Molecule `Cn1c(=O)c2nc[nH]c2n(C)c1=O` [THEOPHYLLINE] displayed an EC50 in the test listed under Rattus norvegicus [13] of 425 µM.
`CCn1cc(-c2nc(/N=C/c3ccc(Br)cc3)n[nH]2)c(=O)c2cc(Br)c(C)nc21` showed an IC50 on DNA gyrase of 6.22 µM.
On to `O=[N+]([O-])c1ncn(CCCCNS(=O)(=O)c2sccc2Cl)n1`, for which, in test [3], inhibition of growth (MIC) required 3.13 µg/mL (≈ 8.56 µM).
Molecule `CC(C)(C#N)c1cc(Cn2cncn2)cc(C(C)(C)C#N)c1` showed an ED50 in [14] of 1.09 µM.
`CC1(c2ccccc2O)NN=C(N)N1C(Cc1cc2ccccc2[nH]1)C(=O)O` (stereo not given): the “Ratio IC50” value in the test with Leishmania major [15] and with Leishmania major [17] was 36 throughout. This molecule also showed an IC50 with Leishmania major [16] of 0.0312 µg/mL (≈ 0.0822 µM).
In turn, `Cc1cc(Nc2ccc(C(F)(F)F)cc2)n2nc(C(F)(F)F)nc2n1` gave an IC50 in the test with Plasmodium falciparum [7] of 0.023 µM.
Turning to `C(/C=C/c1ccc2c(c1)OCO2)=C\C1=NNC(SCc2ccccc2)N1C1CCCCC1` (stereo not given), the IC50 was found to be 3.61 µM with Trypanosoma cruzi [1] and 3.18 µM with Trypanosoma cruzi [2].
For `S=c1[nH]nc(NCNc2n[nH]c(=S)s2)s1`, the EC50 in test [18] came to 89.8 µg/mL (≈ 323 µM); in [19], 85.6 µg/mL (≈ 307 µM).
For `CCn1c(CN2CCN(c3ccccc3)CC2)nn(CN2CCN(c3cc4c(cc3F)c(=O)c(C(=O)O)cn4C3CC3)CC2)c1=S`, the MIC (in test [20]; with Escherichia coli; with Enterococcus faecalis; in the test with Staphylococcus aureus [21]; with Klebsiella pneumoniae; with Pseudomonas aeruginosa) was 0.125 µg/mL (≈ 0.193 µM) each time.
In the case of `O=C(O)c1cn(C2CC2)c2cc(N3CCN(Cn4nc(CN5CCN(c6ccccc6)CC5)n(-c5ccccc5)c4=S)CC3)c(F)cc2c1=O`, the MIC (in [20]; in the test on Escherichia coli; with Enterococcus faecalis; with Staphylococcus aureus [21]; in the test with Klebsiella pneumoniae; with Pseudomonas aeruginosa) was 0.125 µg/mL (≈ 0.18 µM) each time.
